Values quoted from earlier work, collected in patent US20020137692A1, “Novel compositions of potassium channel openers and protein kinase C inhibitors and use thereof” (Pharmacia AB, priority 2001, published 2002).

Molecule | anagen induction in vivo (hair growth) | stimulation of hair keratinocytes (hair keratinocytes) | hair growth stimulation (C3H mouse)
CCCCCCCCCCCCCCCC(=O)OC(CC(=O)O)C[N+](C)(C)C.[Cl-] (racemic) [palmitoyl-DL-carnitine chloride] | marked anagen induction |  | 
Oc1cc(O)c2c(c1)O[C@H](c1ccc(O)c(O)c1)[C@H](O)[C@H]2c1c(O)cc(O)c2c1O[C@H](c1ccc(O)c(O)c1)[C@H](O)C2 [procyanidin B2] | marked anagen induction | stimulation of hair keratinocytes | hair growth stimulation
CCCCCCCCCCCCCCCCOP(=O)([O-])OCC[N+](C)(C)C [hexadecylphosphocholine] | marked anagen induction |  | 
polymyxin B sulfate | marked anagen induction |  | 
calphostin C | marked anagen induction |  | 
Oc1cc(O)c2c(c1)O[C@H](c1ccc(O)c(O)c1)[C@H](O)[C@H]2c1c(O)cc(O)c2c1O[C@H](c1ccc(O)c(O)c1)[C@H](O)[C@H]2c1c(O)cc(O)c2c1O[C@H](c1ccc(O)c(O)c1)[C@H](O)C2 [procyanidin C1] | marked anagen induction | stimulation of hair keratinocytes | hair growth stimulation
Oc1cc(O)c2c(c1)O[C@H](c1ccc(O)c(O)c1)[C@H](O)[C@H]2c1c(O)cc(O)c2c1O[C@H](c1ccc(O)c(O)c1)[C@@H](O)C2 [procyanidin B1] |  | stimulation of hair keratinocytes | hair growth stimulation
Oc1cc(O)c2c(c1)O[C@H](c1ccc(O)c(O)c1)[C@@H](O)[C@@H]2c1c(O)cc(O)c2c1O[C@H](c1ccc(O)c(O)c1)[C@@H](O)C2 [Solution B3, procyanidin B3] |  | stimulation of hair keratinocytes | hair growth stimulation
